Experimental data published in patent publication US20260248126A1, “BIOCIDE” (PURGOS APS, priority 2020, published 2026).
“Also recorded” adds a separate entry of the source.

What was measured:
[1] = system: Canidida albicans ISI 1226; experiment: Minimum bactericidal concentration (MBC), outgrowth from MIC plates; assay type: cell-based, Candida albicans
From the text: Even when no growth is detectable in the MIC tests, it is possible that the microorganisms have survived the treatment i.e., they are not killed but just prevented from growing. In order to test for survivors, MBC plates were subsequently made from the MIC plates.

[2] = system: Pseudomonas aeruginosa, ATCC 10145; experiment: PT6 screening: microbial activity in pre-formulated acrylic paint (total ATP, aerobic and anaerobic growth on agar plate); assay type: cell-based
Experimental: The microbial activity in relation to in-can preservation of paint was tested using three methods: ATP measurement, Aerobic growth on agar plate and Anaerobic growth on agar plate in low-air conditions. In the tests concentrations of 1, 2 and 5% NBDA was tested. […] Furthermore, no significant dependence on concentration was shown in these specific tests. Specific about the ATP measurements: test and method developed by Luminultra. A sample is taken from the test paint at a given time and the total amount of ATP is measured. Total ATP amount are measured at Day 7 and 30. After every ATP measurement, streaking of test material on agar plates has been performed. Growth test in aerobic and anaerobic environment are running in 1 and 14 days, respectively. • Test organism: Pseudomonas aeruginosa, ATCC 10145 The screening has been continuously expanded so that there are individual start-ups of three different trials. See further information in the overview table, table VIII. Table VIII overview. Samples in test. Commercial biocide is Vinkocide CMIK®. Acrylic paint is standard EN 152 (modified without PT6 biocide). P. aeruginosa are inoculated in 200 μl concentration to paint sample size of 140 ml in a sterile “paint can-shape” container. […] “Anaerobic growth day 30” were inoculated on day 20 and measured on day 31.

[3] = system: bacterial count in paint; experiment: In-can preservation of paint, long-time study (bacterial count over time, FIGS. 2-5); assay type: cell-based
Experimental: The results shown that 0.5% NBDA as sole active ingredient for in-can preservation are as successful over times up to at least as year as in-can preservation by 0.5% NBDA together with 0.5% hydrogen peroxide. FIGS. 2-4 show graphs visualizing data on long term effectivity as NBDA as an in-can additive for preservation of paint. […] In […] the development in bacterial count over time for the abovementioned additives are carried out at RT, 32° C. and 60° C. respectively. The starting point is a stained sample i.e., paint with an initial high bacteria count. […] The results shown are for the development in bacterial count over time for paint samples containing 0.5% NBDA alone and 0.5% NBDA+0.5% Hydrogen Peroxide.

[4] = Acute oral toxicity LD50; assay type: in vivo; conditions: worked out from rat LD50 4250 mg/kg
[5] = system: Debaryomyces hansenii ISI 12; experiment: Minimal inhibitory concentration (MIC), microtiter plate; assay type: cell-based
Experimental: (§1) For the tested substance. the stock solution was 10%. Minimum inhibitory concentrations (MICs) are defined as the lowest concentration of an antimicrobial that will inhibit the visible growth of a microorganism after a standardized incubation. In the present study, MIC assay was performed by pipetting robot. The principle is that an indicator microorganism at a defined cell density is cultured with a range of concentrations of the test compound, one concentration pr. well in a row on the microtiter plate. For bacteria and yeasts the minimal inhibitory concentration was detected as no increase of optical density (OD), for moulds microtiter plates were read visually. Each indicator organism is tested in duplicate and the MIC is calculated as the average of the two determinations. The tested concentrations of the antimicrobial substances were 2-fold dilutions from 5%. All indicator organisms (see Table 2.) were pre-cultivated in a suitable growth medium and diluted in the same medium to give a final concentration in the assay of ~1×10^3 cfu/ml. The microtiter plates were incubated under specific incubation conditions (see Table 3). [table]

[6] = system: Pseudomonas aeruginosa ISI 1462; experiment: as above; assay type: cell-based
Experimental: as §1

[7] = system: Lactobacillus brevis ISI 2269; experiment: as above; assay type: cell-based
Experimental: as §1

[8] = system: Listeria monocytogenes ISI 22; experiment: as above; assay type: cell-based
Experimental: as §1

[9] = system: Streptococcus termophilus ISI 1563; experiment: as above; assay type: cell-based
Experimental: as §1

[10] = system: Leuconostoc mesenteroides ISI 504; experiment: as above; assay type: cell-based
Experimental: as §1

[11] = system: Bacillus cereus ISI 842; experiment: as above; assay type: cell-based
Experimental: as §1

[12] = system: Coriolus versicolor. CTB 863 A; experiment: EN 113 test against wood destroying basidiomycetes (impregnated beech); assay type: cell-based
[13] = system: Poria placenta. FPRL 280; experiment: EN 113 test against wood destroying basidiomycetes (impregnated Scots pine sapwood); assay type: cell-based; conditions: for Corrected mass loss / Mass loss: Mean
[14] = system: Aspergillus niger ISI 3; experiment: Minimal inhibitory concentration (MIC), microtiter plate read visually; assay type: cell-based
Experimental: as §1

[15] = system: Coniophora puteana. BAM Ebw. 15; experiment: EN 113 test against wood destroying basidiomycetes (impregnated Scots pine sapwood); assay type: cell-based

## CCCCN(CCO)CCO [NBDA, N-butyldiethanolamine]
[1]
  MBC(%): 1.25%
[2]; 1, 2 and 5% NBDA in acrylic paint
  anti-microbial potential in paint (ATP, aerobic and anaerobic growth): all three concentrations reveal anti-microbial potentials
[2]; concentrations of 0.5%, 1%, 2%, and 5%
  effect against aerobic bacteria, in-can preservation of paints: effective against aerobic bacteria such Gram-negative bacteria such as Pseudomonas aeruginosa
[3]; initial clean sample (low bacterial count), 0.5% NBDA, FIG. 5
  long term effectivity, bacterial count over time: as effective as 0.5% NBDA+0.5% Hydrogen peroxide for preventing bacterial growth in paint samples
[3]; initial high count, 0.5% and 1% NBDA, RT, 32° C., 60° C., FIGS. 2-4
  long term effectivity, bacterial count over time: consistent long-term results for in-can preservation of paint; also recorded: as effective as NBDA+Hydrogen Peroxide for both NBDA concentrations at all three test temperatures long term; also recorded: highly effective as the sole biocide additive for in-can preservation of paints
[3]; initial high count, 0.5% and 1% NBDA, RT, 32° C., 60° C., FIGS. 2-4, listed as N-butyldiethanolamine
  long term effectivity, bacterial count over time: no bacterial growth even for sustained periods of time; also recorded: sustained effect after more than a year
[4]
  human consummation equivalent to LD50: 319 gram pr 75 kg
[5]
  MIC (%): 1.25%
[6]
  MIC (%): 0.63%
[7]
  MIC (%): 0.16%
[8]
  MIC (%): 1.25%
[9]
  MIC (%): 0.63%
[10]
  MIC (%): 0.31%
[11]
  MIC (%): 1.25%
[12]
  Toxic value, Sol. conc.: >2.20 % w/w
[13]
  Toxic value, Sol. conc.: 0.72-1.01 % w/w
[13]; Solution conc. 0.36 % w/w
  Corrected mass loss: 14.2%
[13]; Solution conc. 0.72 % w/w
  Corrected mass loss: 8.2%
  Mass loss: 7.8%
[13]; Solution conc. 1.01 % w/w
  Corrected mass loss: 1.4%
  Mass loss: 1.0%
[13]; Solution conc. 1.43 % w/w
  Corrected mass loss: 1.5%
  Mass loss: 0.4%
[13]; concentrations of 0.36%, 0.51%, 0.72%, 1.01% and 1.43%
  fungicide effect, preventing wood destruction: effective as a fungicide for preventing wood destruction
[14]
  MIC (%): 0.63%
[15]
  Toxic value, Sol. conc.: >1.43 % w/w
